Data: PubChem BioAssay AID256 (DTP/NCI, 2004)
Values joined by “and” are separate entries in the source; they are usually repeats but may differ in a detail not shown here. Equal values may be shown once. Inconclusive results and toxic doses are left out.

Test system: CD2F1 mice, L1210 leukemia ip, survival T/C
Assay: NCI In Vivo Anticancer Drug Screen. Data for tumor model L1210 Leukemia (intraperitoneal) in CD2F1 (CDF1) mice
Details: higher = longer survival
How it was run: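 Transplantable tumor in mice; compound-treated vs vehicle-treated groups. Read-out = treated/control ratio of the measured endpoint.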

O=C(NO)c1ccc(O)c(O)c1
T/C (endpoint: mean survival time, dose: 25.0 mg/kg/injection, schedule: Q01DX009 (ip), vehicle: water): 115 % of control
T/C (endpoint: mean survival time, dose: 164.71 mg/kg/injection, schedule: Q01DX009 (ip), vehicle: water): 121 % of control
T/C (endpoint: mean survival time, dose: 196.0 mg/kg/injection, schedule: Q01DX009 (ip), vehicle: water): 152 % of control
T/C (endpoint: mean survival time, dose: 200.0 mg/kg/injection, schedule: Q01DX009 (ip), vehicle: water): 167 % of control
T/C (endpoint: mean survival time, dose: 245.0 mg/kg/injection, schedule: Q01DX009 (ip), vehicle: water): 168 % of control
T/C (endpoint: mean survival time, dose: 307.0 mg/kg/injection, schedule: Q01DX009 (ip), vehicle: water): 167 % of control
T/C (endpoint: mean survival time, dose: 307.2 mg/kg/injection, schedule: Q01DX009 (ip), vehicle: water): 176 % of control
T/C (endpoint: mean survival time, dose: 336.14 mg/kg/injection, schedule: Q01DX009 (ip), vehicle: water): 155 % of control
T/C (endpoint: mean survival time, dose: 383.0 mg/kg/injection, schedule: Q01DX009 (ip), vehicle: water): 185 % of control
T/C (endpoint: mean survival time, dose: 384.0 mg/kg/injection, schedule: Q01DX009 (ip), vehicle: water): 162 % of control
T/C (endpoint: mean survival time, dose: 400.0 mg/kg/injection, schedule: Q01DX009 (ip), vehicle: water): 167 % of control
T/C (endpoint: mean survival time, dose: 480.0 mg/kg/injection, schedule: Q01DX009 (ip), vehicle: water): 167 % of control and 206 % of control
T/C (endpoint: mean survival time, dose: 480.2 mg/kg/injection, schedule: Q01DX009 (ip), vehicle: water): 187 % of control
T/C (endpoint: mean survival time, dose: 600.0 mg/kg/injection, schedule: Q01DX009 (ip), vehicle: water): 154 % of control and 164 % of control
T/C (endpoint: median survival time, dose: 18.75 mg/kg/injection, schedule: Q03HX024 (ip), vehicle: water): 113 % of control
T/C (endpoint: median survival time, dose: 22.5 mg/kg/injection, schedule: Q03HX024 (ip), vehicle: water): 109 % of control
T/C (endpoint: median survival time, dose: 37.5 mg/kg/injection, schedule: Q03HX024 (ip), vehicle: water): 124 % of control
T/C (endpoint: median survival time, dose: 45.0 mg/kg/injection, schedule: Q03HX024 (ip), vehicle: water): 119 % of control
T/C (endpoint: median survival time, dose: 50.0 mg/kg/injection, schedule: Q01DX009 (ip), vehicle: water): 117 % of control
T/C (endpoint: median survival time, dose: 100.0 mg/kg/injection, schedule: Q01DX009 (ip), vehicle: water): 124 % of control
T/C (endpoint: median survival time, dose: 120.0 mg/kg/injection, schedule: Q01DX009 (ip), vehicle: water): 122 % of control
T/C (endpoint: median survival time, dose: 180.0 mg/kg/injection, schedule: Q03HX024 (ip), vehicle: water): 214 % of control
T/C (endpoint: median survival time, dose: 225.0 mg/kg/injection, schedule: Q03HX024 (ip), vehicle: water): 273 % of control
T/C (endpoint: median survival time, dose: 240.0 mg/kg/injection, schedule: Q01DX009 (ip), vehicle: water): 154 % of control
T/C (endpoint: median survival time, dose: 268.0 mg/kg/injection, schedule: Q01DX009 (ip), vehicle: water): 160 % of control
T/C (endpoint: median survival time, dose: 270.0 mg/kg/injection, schedule: Q03HX024 (ip), vehicle: water): 238 % of control
T/C (endpoint: median survival time, dose: 400.0 mg/kg/injection, schedule: Q01DX009 (ip), vehicle: water): 162 % of control and 163 % of control
T/C (endpoint: median survival time, dose: 480.0 mg/kg/injection, schedule: Q01DX009 (ip), vehicle: water): 178 % of control
T/C (endpoint: median survival time, dose: 600.0 mg/kg/injection, schedule: Q01DX009 (ip), vehicle: water): 95 % of control
T/C (endpoint: median survival time, dose: 720.0 mg/kg/injection, schedule: Q01DX009 (ip), vehicle: water): 170 % of control

Cc1ccc(S(=O)(=O)N=N/C=C2/C=CC=CN2O)cc1
T/C (endpoint: mean survival time, dose: 20.0 mg/kg/injection, schedule: Q01DX009 (ip), vehicle: Klucel (hydroxypropylcellulose) (HPC)): 105 % of control
T/C (endpoint: mean survival time, dose: 40.0 mg/kg/injection, schedule: Q01DX009 (ip), vehicle: Klucel (hydroxypropylcellulose) (HPC)): 108 % of control
T/C (endpoint: mean survival time, dose: 45.0 mg/kg/injection, schedule: Q01DX009 (ip), vehicle: Klucel (hydroxypropylcellulose) (HPC)): 114 % of control
T/C (endpoint: mean survival time, dose: 87.5 mg/kg/injection, schedule: Q01DX009 (ip), vehicle: Klucel (hydroxypropylcellulose) (HPC)): 121 % of control

OCc1ccc(Cl)c(Cl)c1
T/C (endpoint: mean survival time, dose: 100.0 mg/kg/injection, schedule: Q04DX003 (ip), vehicle: saline with Tween-80): 97 % of control
T/C (endpoint: mean survival time, dose: 200.0 mg/kg/injection, schedule: Q04DX003 (ip), vehicle: saline with Tween-80): 102 % of control
T/C (endpoint: mean survival time, dose: 400.0 mg/kg/injection, schedule: Q04DX003 (ip), vehicle: saline with Tween-80): 96 % of control

[Cl][Pt+2][Cl].[NH-]C1C(O)OC(CO)C(O)C1O.[NH-]C1C(O)OC(CO)C(O)C1O (stereo not given)
T/C (endpoint: median survival time, dose: 2.5 mg/kg/injection, schedule: Q04DX003 (ip), vehicle: saline): 105 % of control
T/C (endpoint: median survival time, dose: 5.0 mg/kg/injection, schedule: Q04DX003 (ip), vehicle: saline): 110 % of control
T/C (endpoint: median survival time, dose: 10.0 mg/kg/injection, schedule: Q04DX003 (ip), vehicle: saline): 93 % of control
T/C (endpoint: median survival time, dose: 20.0 mg/kg/injection, schedule: Q04DX003 (ip), vehicle: saline): 100 % of control
T/C (endpoint: median survival time, dose: 25.0 mg/kg/injection, schedule: Q04DX003 (ip), vehicle: saline): 103 % of control
T/C (endpoint: median survival time, dose: 50.0 mg/kg/injection, schedule: Q04DX003 (ip), vehicle: saline): 105 % of control
T/C (endpoint: median survival time, dose: 100.0 mg/kg/injection, schedule: Q04DX003 (ip), vehicle: saline): 103 % of control
T/C (endpoint: median survival time, dose: 200.0 mg/kg/injection, schedule: Q04DX003 (ip), vehicle: saline): 101 % of control
